Measurements reported in ChEMBL document CHEMBL5500371, “Arginine and tryptophan-rich dendritic antimicrobial peptides that disrupt membranes for bacterial infection in vivo” (Eur J Med Chem, 2024).
≈ marks a conversion by molar mass, not a printed value. Calls of active or inactive are those of the source. The rule behind the calls is not given here. Where a SMILES comes first, the peptide text is derived from it. Side-chain parts run from the residue outwards.

Legend:
Escherichia coli [1] = test: […] activity against Escherichia coli ATCC 25922 infected in ip dosed male BALB/c pulmonary infection model assessed as reduction in bacterial colonies administered at 3 and 12 hrs post infection and measured 24 hrs post infection; assay type: functional, organism-based; conditions: dose 5-10 mg/kg, time 12-21 hrs
Pseudomonas aeruginosa = test: Antibacterial activity against Pseudomonas aeruginosa ATCC 27853 assessed as inhibition of bacterial growth incubated for 20 hrs by broth microdilution method; assay type: functional
Escherichia coli [2] = test: Antibacterial activity against Escherichia coli ATCC 25922 assessed as inhibition of bacterial growth preincubated with 10% mouse serum for 6 hrs and measured after 20 hrs by broth microdilution method; assay type: functional
Staphylococcus aureus [3] = test: Antibacterial activity against Staphylococcus aureus ATCC 25923 assessed as inhibition of bacterial growth incubated for 20 hrs in presence of MgCl2 by broth microdilution method (reference value: 16 microM); assay type: functional
Escherichia coli [4] = test: Antibacterial activity against Escherichia coli ATCC 25922 assessed as inhibition of bacterial growth preincubated with 10% mouse serum for 1 hr and measured after 20 hrs by broth microdilution method; assay type: functional
Staphylococcus aureus [5] = test: Antibacterial activity against Staphylococcus aureus ATCC 25923 assessed as inhibition of bacterial growth preincubated with 10% mouse serum for 1 hr and measured after 20 hrs by broth microdilution method; assay type: functional
Staphylococcus aureus [6] = test: Synergistic antibacterial activity against Staphylococcus aureus ATCC 25923 assessed as fractional inhibitory concentration index at 0.25 to 4 times MIC incubated for 20 hrs in presence of gentamicin by checkerboard assay; assay type: functional
Bacillus subtilis = test: Antibacterial activity against Bacillus subtilis ATCC 23857 assessed as inhibition of bacterial growth incubated for 20 hrs by broth microdilution method; assay type: functional
Staphylococcus aureus [7] = test: Antibacterial activity against Staphylococcus aureus ATCC 25923 assessed as inhibition of bacterial growth by measuring fold increase in MIC incubated for 20 hrs in presence of KCl by broth microdilution method relative to control; assay type: functional
Staphylococcus aureus [8] = test: Antibacterial activity against Staphylococcus aureus ATCC 25923 assessed as inhibition of bacterial growth incubated for 20 hrs in presence of NaCl by broth microdilution method (reference value: 16 microM); assay type: functional
Escherichia coli [9] = test: Antibacterial activity against Escherichia coli ATCC 25922 assessed as inhibition of bacterial growth incubated for 20 hrs by broth microdilution method; assay type: functional
Staphylococcus aureus [10] = test: Antibacterial activity against Staphylococcus aureus ATCC 25923 assessed as inhibition of bacterial growth incubated for 20 hrs in presence of FeCl3 by broth microdilution method (reference value: 16 microM); assay type: functional
Staphylococcus aureus [11] = test: Antibacterial activity against Staphylococcus aureus ATCC 25923 assessed as inhibition of bacterial growth by measuring fold increase in MIC incubated for 20 hrs in presence of ZnCl2 by broth microdilution method relative to control; assay type: functional
Staphylococcus aureus [12] = test: Additive antibacterial activity against Staphylococcus aureus ATCC 25923 assessed as fractional inhibitory concentration index at 0.25 to 4 times MIC incubated for 20 hrs in presence of kanamycin by checkerboard assay; assay type: functional
Staphylococcus aureus [13] = test: Antibacterial activity against Staphylococcus aureus ATCC 25923 assessed as inhibition of bacterial growth by measuring fold increase in MIC incubated for 20 hrs in presence of NaCl by broth microdilution method relative to control; assay type: functional
Klebsiella pneumoniae = test: Antibacterial activity against Klebsiella pneumoniae ATCC 700603 assessed as inhibition of bacterial growth incubated for 20 hrs by broth microdilution method; assay type: functional
Staphylococcus aureus [14] = test: Antibacterial activity against Staphylococcus aureus ATCC 25923 assessed as inhibition of bacterial growth by measuring fold increase in MIC incubated for 20 hrs in presence of FeCl3 by broth microdilution method relative to control; assay type: functional
Staphylococcus aureus [15] = test: Antibacterial activity against Staphylococcus aureus ATCC 25923 assessed as inhibition of bacterial growth incubated for 20 hrs by broth microdilution method; assay type: functional
Staphylococcus aureus [16] = test: Additive antibacterial activity against Staphylococcus aureus ATCC 25923 assessed as fractional inhibitory concentration index at 0.25 to 4 times MIC incubated for 20 hrs in presence of vancomycin by checkerboard assay; assay type: functional
Staphylococcus aureus [17] = test: Antibacterial activity against Staphylococcus aureus ATCC 25923 assessed as inhibition of bacterial growth preincubated with 10% mouse serum for 6 hrs and measured after 20 hrs by broth microdilution method; assay type: functional
Acinetobacter baumannii = test: Antibacterial activity against Acinetobacter baumannii ATCC 19606 assessed as inhibition of bacterial growth incubated for 20 hrs by broth microdilution method; assay type: functional
Staphylococcus aureus [18] = test: Antibacterial activity against Staphylococcus aureus ATCC 25923 assessed as inhibition of bacterial growth by measuring fold increase in MIC incubated for 20 hrs in presence of MgCl2 by broth microdilution method relative to control; assay type: functional
Cell membrane [19] = test: Induction of inner membrane permeabilization in Escherichia coli ML-35 ATCC 43837 at 0.5 to 4 times MIC by ONPG reagent based microplate reader analysis; conditions: time 0-135 min, TDE = time-dependent effect
Escherichia coli [20] = test: […] activity against Escherichia coli ATCC 25922 infected in male BALB/c pulmonary infection model assessed as reduction in infiltration of pneumonia cells at 5 to 10 mg/kg, ip administered at 3 and 12 hrs post infection and measured 24 hrs post infection by H and E staining based analysis; assay type: functional, organism-based; conditions: dose 5-10 mg/kg, time 12-21 hrs
[21] = Acute toxicity in male BALB/c mouse assessed as animal death at 80 mg/kg, ip administered as single dose and measured after 3 days; assay type: organism-based; conditions: in vivo, 72 h, time 3 day
Cell membrane [22] = test: Disruption of cell membrane morphology in Escherichia coli assessed as partial creasing in bacterial membrane at 2 times MIC measured after 0.5 to 2 hrs by SEM analysis; assay type: cell membranes; conditions: time 0.5-2 hrs
[23] = Acute toxicity in male BALB/c mouse assessed as loss of appetite at 80 to 130 mg/kg, ip administered as single dose and measured after 3 days; assay type: organism-based; conditions: in vivo, 72 h, dose 80-130 mg/kg, time 3 day
Staphylococcus aureus [24] = test: Synergistic antibacterial activity against Staphylococcus aureus ATCC 25923 assessed as fractional inhibitory concentration index at 0.25 to 4 times MIC incubated for 20 hrs in presence of rifampicin by checkerboard assay; assay type: functional
Escherichia coli [25] = test: Synergistic antibacterial activity against Escherichia coli ATCC 25922 assessed as fractional inhibitory concentration index at 0.25 to 4 times MIC incubated for 20 hrs in presence of polymyxin B by checkerboard assay; assay type: functional
Cell membrane [26] = test: Disruption of cell membrane morphology in Staphylococcus aureus assessed as breakage of cell membrane at 2 times MIC measured after 0.5 to 2 hrs by SEM analysis; assay type: cell membranes; conditions: time 0.5-2 hrs
[27] = Acute toxicity in ip dosed male BALB/c mouse administered as single dose; assay type: organism-based; conditions: male, BALB/c, in vivo, read-out: LD50
[28] = Therapeutic index, ratio of MHC10 for hemolytic activity in mouse erythrocytes preincubated with 10% mouse serum for 1 hr to MIC for Staphylococcus aureus ATCC 25923 preincubated with 10% mouse serum for 1 hr; assay type: toxicity, cell-based; conditions: mouse erythrocytes, read-out: TI
Cell membrane [29] = test: Disruption of cell membrane morphology in Staphylococcus aureus assessed as loss of intact cell morphology at 2 times MIC measured after 0.5 to 2 hrs by SEM analysis; assay type: cell membranes; conditions: time 0.5-2 hrs
[30] = Hemolytic activity in mouse erythrocytes at 256 uM preincubated for 1 to 6 hr with 10% mouse serum and measured after 1 hr by absorbance based analysis; assay type: toxicity, cell-based, Erythrocyte; conditions: time 1-7 hrs, read-out: Activity

## POLYMYXIN B
Escherichia coli [1]
  Activity: Dose-Dependent Effect
Pseudomonas aeruginosa
  MIC: 4 µM
Escherichia coli [2]; time 26.0 hrs
  MIC: 2 µM
Staphylococcus aureus [3]
  MIC: 16 µM
Escherichia coli [4]; time 21.0 hrs
  MIC: 1 µM
Staphylococcus aureus [5]; time 21.0 hrs
  MIC: 1 µM
Staphylococcus aureus [6]
  fractional inhibitory concentration index (FICI): 0.313
Bacillus subtilis
  MIC: 4 µM
Staphylococcus aureus [7]
  fold change (FC): < 2
Staphylococcus aureus [8]
  MIC: 64 µM
Escherichia coli [9]
  MIC: 4 µM
Staphylococcus aureus [10]
  MIC: 16 µM
Staphylococcus aureus [11]
  fold change (FC): < 2
Staphylococcus aureus [12]
  fractional inhibitory concentration index (FICI): 0.563
Staphylococcus aureus [13]
  fold change (FC): 4
Klebsiella pneumoniae
  MIC: 4 µM
Staphylococcus aureus [14]
  fold change (FC): < 2
Staphylococcus aureus [15]
  MIC: 16 µM
Staphylococcus aureus [16]
  fractional inhibitory concentration index (FICI): 0.563
Staphylococcus aureus [17]; time 21.0 hrs
  MIC: 1 µM
Acinetobacter baumannii
  MIC: 2 µM
Staphylococcus aureus [18]
  fold change (FC): < 2

## N=C(N)NCCC[C@H](NC(=O)[C@H](CCCNC(=N)N)NC(=O)[C@H](CCCNC(=N)N)NC(=O)[C@@H](N)CCCNC(=N)N)C(=O)N[C@@H](CCCCN)C(=O)N[C@@H](Cc1c[nH]c2ccccc12)C(=O)N[C@@H](Cc1c[nH]c2ccccc12)C(=O)N[C@@H](Cc1c[nH]c2ccccc12)C(=O)N[C@@H](Cc1c[nH]c2ccccc12)C(N)=O
Cell membrane [19]
  Activity: Tde
Escherichia coli [20]
  Activity: Active
Pseudomonas aeruginosa
  MIC: 16 µM (≈ 24.2 µg/mL)
Escherichia coli [2]; time 26 hrs
  MIC: 4 µM (≈ 6.06 µg/mL)
Escherichia coli [4]; time 21 hrs
  MIC: 2 µM (≈ 3.03 µg/mL)
Staphylococcus aureus [5]; time 21 hrs
  MIC: 2 µM (≈ 3.03 µg/mL)
Staphylococcus aureus [6]
  fractional inhibitory concentration index (FICI): 0.375
[21]
  Activity: Non-Toxic
Bacillus subtilis
  MIC: 4 µM (≈ 6.06 µg/mL)
Staphylococcus aureus [7]
  fold change (FC): <=2
Cell membrane [22]
  Activity: Active
[23]
  Activity: Toxic
Escherichia coli [9]
  MIC: 8 µM (≈ 12.1 µg/mL)
Staphylococcus aureus [24]
  fractional inhibitory concentration index (FICI): 0.375
Staphylococcus aureus [11]
  fold change (FC): <=2
Staphylococcus aureus [12]
  fractional inhibitory concentration index (FICI): 0.563
Staphylococcus aureus [13]
  fold change (FC): <=2
Escherichia coli [25]
  fractional inhibitory concentration index (FICI): 0.5
Klebsiella pneumoniae
  MIC: 32 µM (≈ 48.5 µg/mL)
Cell membrane [26]
  Activity: Active
[27]
  LD50: 105 mg/kg
Staphylococcus aureus [14]
  fold change (FC): <=2
Staphylococcus aureus [15]
  MIC: 8 µM (≈ 12.1 µg/mL)
[28]
  selectivity ratio: 0.5
Staphylococcus aureus [16]
  fractional inhibitory concentration index (FICI): 0.563
Staphylococcus aureus [17]; time 21 hrs
  MIC: 2 µM (≈ 3.03 µg/mL)
Cell membrane [29]
  Activity: Active
[30]
  hemolysis at 1 h, 256 µM: < 10%
Acinetobacter baumannii
  MIC: 64 µM (≈ 96.9 µg/mL)
Staphylococcus aureus [18]
  fold change (FC): <=2

## N=C(N)NCCC[C@H](NC(=O)[C@@H](N)CCCNC(=N)N)C(=O)NCCCC[C@H](NC(=O)[C@H](CCCNC(=N)N)NC(=O)[C@@H](N)CCCNC(=N)N)C(=O)N[C@@H](Cc1c[nH]c2ccccc12)C(=O)N[C@@H](Cc1c[nH]c2ccccc12)C(=O)N[C@@H](Cc1c[nH]c2ccccc12)C(=O)N[C@@H](Cc1c[nH]c2ccccc12)C(N)=O (H-RRK([Arg-Arg])WWWW-NH2)
Cell membrane [19]
  Activity: Tde
Escherichia coli [1]
  Activity: Dose-Dependent Effect
Escherichia coli [20]
  Activity: Active
Pseudomonas aeruginosa
  MIC: 8 µM (≈ 12.1 µg/mL)
Escherichia coli [2]; time 26 hrs
  MIC: 2 µM (≈ 3.03 µg/mL)
Staphylococcus aureus [3]
  MIC: 8 µM
Escherichia coli [4]; time 21 hrs
  MIC: 1 µM (≈ 1.51 µg/mL)
Staphylococcus aureus [5]; time 21 hrs
  MIC: 1 µM (≈ 1.51 µg/mL)
Staphylococcus aureus [6]
  fractional inhibitory concentration index (FICI): 0.313
[21]
  Activity: Non-Toxic
Bacillus subtilis
  MIC: 4 µM (≈ 6.06 µg/mL)
Staphylococcus aureus [7]
  fold change (FC): <=2
Staphylococcus aureus [8]
  MIC: 16 µM
Cell membrane [22]
  Activity: Active
[23]
  Activity: Toxic
Escherichia coli [9]
  MIC: 16 µM (≈ 24.2 µg/mL)
Staphylococcus aureus [24]
  fractional inhibitory concentration index (FICI): 0.375
Staphylococcus aureus [10]
  MIC: 8 µM
Staphylococcus aureus [11]
  fold change (FC): <=2
Staphylococcus aureus [12]
  fractional inhibitory concentration index (FICI): 0.563
Staphylococcus aureus [13]
  fold change (FC): <=2
Escherichia coli [25]
  fractional inhibitory concentration index (FICI): 0.5
Klebsiella pneumoniae
  MIC: 64 µM (≈ 96.9 µg/mL)
Cell membrane [26]
  Activity: Active
[27]
  LD50: 109 mg/kg
Staphylococcus aureus [14]
  fold change (FC): <=2
Staphylococcus aureus [15]
  MIC: 16 µM (≈ 24.2 µg/mL)
[28]
  selectivity ratio: 1
Staphylococcus aureus [16]
  fractional inhibitory concentration index (FICI): 0.563
Staphylococcus aureus [17]; time 21 hrs
  MIC: 1 µM (≈ 1.51 µg/mL)
Cell membrane [29]
  Activity: Active
[30]
  hemolysis at 1 h, 256 µM: < 10%
Acinetobacter baumannii
  MIC: 32 µM (≈ 48.5 µg/mL)
Staphylococcus aureus [18]
  fold change (FC): <=2
